Test system: mice (wild-type and MAS receptor gene homozygous mutant)
Assay: Metrazol administration test (metrazol dose testing, seizure susceptibility)
Type: in vivo, mouse
Settings: for Dose (mg/kg body weight), Observable: T/C / Dose (mg/kg body weight), Observable: Death / Dose (mg/kg body weight), Observable: Twitch / Dose (mg/kg body weight), Observable: Extension: F2N1 mice; for Dose (mg/kg body weight), Observable: T/C: metrazol dose to T/C seizure; for Dose (mg/kg body weight), Observable: Death: metrazol dose to death; for Dose (mg/kg body weight), Observable: Twitch: metrazol dose to first twitch; for Dose (mg/kg body weight), Observable: Extension: metrazol dose to tonic extension
Experimental: A metrazol administration test can be used to screen animals for varying susceptibilities to seizures or similar events. For example, a 5 mg/ml solution of metrazol can be infused through the tail vein of a mouse at a rate of, e.g., approximately 0.375 ml/min. The infusion will cause all mice to experience seizures, followed by death. Those mice that enter the seizure stage the soonest are believed to be more prone to seizures.
The transgenic mice were analyzed for phenotypic changes. […] These characteristics response parameters are: (1) first twitch; (2) tonic/clonic seizure; (3) tonic extension, […]; and (4) death.

[1] = genotype −/− (MAS homozygous mutant)

Compound: C1CCc2nnnn2CC1 [metrazol]
- Dose (mg/kg body weight), Observable: T/C (genotype +/+ (wild-type)): 37.94 mg/kg body weight
- Dose (mg/kg body weight), Observable: Death (genotype +/+ (wild-type)): 96.27 mg/kg body weight
- Dose (mg/kg body weight), Observable: Twitch (genotype +/+ (wild-type)): 25.59 mg/kg body weight
- Dose (mg/kg body weight), Observable: Extension (genotype +/+ (wild-type)): 75.60 mg/kg body weight
- Dose (mg/kg body weight), Observable: T/C [1]: 45.28 mg/kg body weight
- Dose (mg/kg body weight), Observable: Death [1]: 138.55 mg/kg body weight
- Dose (mg/kg body weight), Observable: Twitch [1]: 33.95 mg/kg body weight
- Dose (mg/kg body weight), Observable: Extension [1]: 115.89 mg/kg body weight
- response threshold to metrazol (homozygous mutants as compared to wild-type animals): increased
